Each structure is given as a SMILES string.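 Results reflect a 48-hour exposure of cells in 96-well plates to compound at five concentrations. Abbreviation: GI50, concentration required for 50% inhibition of growth.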 Calls of active or inactive are those of the source. No stated cut-off is given here; in the data, active = GI50 up to about 1.1 µM and inactive = higher.

The source of these data is ChEMBL document CHEMBL1201862, “PubChem BioAssay data set” (2004).

Some test systems named below: 786-0; HCC 2998; HCT-15; IGROV-1; KM-20L2; M14; M19-MEL; MOLT-4; SK-MEL-2; SK-OV-3; SNB-19; SNB-75; UACC-257; UO-31; NCI-H226; OVCAR-5.
Holding throughout (experiment): NCI-60 cell line screen, 48 h

Take `O/N=C1/C(=C/c2ccc(Cl)cc2)CCCC1C(NO)c1ccc(Cl)cc1` (stereo not given): the GI50 was 20.7 µM (inactive) with 786-0; 15.5 µM (inactive) in the experiment with HCC 2998; 19.1 µM with HCT-15; 38.2 µM (inactive) in the experiment with IGROV-1; 17.6 µM (inactive) in the experiment on KM-20L2; 16.2 µM (inactive) with M14. Besides, the GI50 in the experiment with M19-MEL was 22.9 µM (inactive); in the experiment on MOLT-4, 14.7 µM (inactive); in the experiment with SK-MEL-2, 27.1 µM (inactive); in the experiment with SK-OV-3, 50.8 µM (inactive); with SNB-19, 24.2 µM (inactive); in the experiment on SNB-75, 12.6 µM (inactive). The GI50 with UACC-257 was 17.2 µM (inactive); in the experiment on UO-31 it was 16.6 µM (inactive).

For `CCN(CC)CCCn1cnc2ncccc2c1=O`, the GI50 in the experiment on 786-0 was > 100 µM (inactive); in the experiment with HCC 2998 it was > 10 µM (inactive); in the experiment on IGROV-1, > 100 µM (inactive); in the experiment with M14, > 100 µM (inactive); with M19-MEL, > 100 µM (inactive); in the experiment with NCI-H226, > 100 µM (inactive). The GI50 with OVCAR-5, in the experiment with SK-MEL-2, with SK-OV-3, in the experiment on SNB-19, in the experiment with SNB-75 and in the experiment on UO-31 was > 100 µM (inactive) in each case.

For the molecule `C/C(=N/OCCC(=O)O)C1CC1`, the GI50 in the experiment on 786-0 was > 100 µM (inactive); in the experiment on HCC 2998, > 100 µM (inactive); in the experiment with HCT-15, > 100 µM; with IGROV-1, > 100 µM (inactive); with KM-20L2, > 100 µM (inactive); in the experiment on M14, > 100 µM (inactive). The GI50 with M19-MEL, in the experiment on NCI-H226, in the experiment with SK-MEL-2, in the experiment on SK-OV-3, in the experiment on SNB-19 and in the experiment on SNB-75 was > 100 µM (inactive) in each case. In the experiment with UO-31, the GI50 is > 100 µM (inactive).

Take `Cc1ccc(-c2cc(=S)n(-c3ccccc3)c3[nH]c(=S)n(-c4ccccc4)c(=N)c23)cc1`: the GI50 is > 100 µM (inactive) in the experiment on 786-0; > 100 µM (inactive) in the experiment with HCC 2998; > 100 µM with HCT-15; > 100 µM (inactive) in the experiment on IGROV-1; > 100 µM (inactive) in the experiment on KM-20L2; > 100 µM (inactive) in the experiment on M14. In addition, the GI50 in the experiment with M19-MEL, in the experiment with MOLT-4, with NCI-H226, in the experiment on OVCAR-5, in the experiment on SK-MEL-2 and in the experiment with SNB-19 was > 100 µM (inactive) in each case. Moreover, the GI50 in the experiment with SNB-75, in the experiment on UACC-257 and in the experiment on UO-31 was > 100 µM (inactive) each time.

As to `CN(C)/C(=N/C(=S)Nc1ccccc1)SCc1ccccc1`, the GI50 is 56.1 µM (inactive) in the experiment on 786-0; 36.4 µM (inactive) with HCC 2998; 57.5 µM in the experiment with HCT-15; 74.3 µM (inactive) in the experiment on IGROV-1; 67.8 µM (inactive) with M14; 14.7 µM (inactive) in the experiment with M19-MEL. Also, the GI50 was 32.5 µM (inactive) in the experiment on MOLT-4; 36.1 µM (inactive) in the experiment on NCI-H226; > 100 µM (inactive) with OVCAR-5; 49.9 µM (inactive) with SK-MEL-2; > 100 µM (inactive) with SK-OV-3; 40.3 µM (inactive) in the experiment with SNB-19. The GI50 was 30.3 µM (inactive) in the experiment with SNB-75, 36.6 µM (inactive) in the experiment on UACC-257 and 22.5 µM (inactive) in the experiment on UO-31.

On to `COc1ccc2c(c1)[n+]([O-])c(-c1ccccc1Cl)c(N)[n+]2[O-]`, for which the GI50 in the experiment with 786-0 was > 100 µM (inactive); with HCT-15, 39.9 µM; in the experiment with IGROV-1, 79.1 µM (inactive); in the experiment on KM-20L2, 38.8 µM (inactive); in the experiment with M14, 73.1 µM (inactive); in the experiment on M19-MEL, 69.8 µM (inactive). In addition, the GI50 in the experiment with MOLT-4 is 96.8 µM (inactive); with NCI-H226, > 100 µM (inactive); in the experiment on OVCAR-5 it was > 100 µM (inactive); in the experiment on SK-MEL-2, > 100 µM (inactive); with SK-OV-3 it was > 100 µM (inactive); in the experiment with SNB-19, > 100 µM (inactive). For the same molecule, the GI50 in the experiment on SNB-75 is 75 µM (inactive); with UACC-257 it was 36.6 µM (inactive); in the experiment on UO-31, 99.8 µM (inactive).

For the molecule `OCC1C(/C=C/c2ccoc2)ON2CCCC12` (stereo not given), the GI50 with 786-0, with HCC 2998, with KM-20L2, with M14, in the experiment with M19-MEL and in the experiment on NCI-H226 was > 100 µM (inactive) in each case. Moreover, the GI50 in the experiment on OVCAR-5, with SK-MEL-2, in the experiment with SNB-19, with SNB-75, in the experiment on UACC-257 and in the experiment on UO-31 was > 100 µM (inactive) each time.

As for `Cc1cccc(C)c1NC(=O)C1C(=O)N(c2c(C)cccc2C)C(=O)/C1=N\NC(N)=S` (stereo not given), the GI50 was > 100 µM (inactive) in the experiment with 786-0; > 100 µM (inactive) in the experiment with HCC 2998; > 100 µM in the experiment with HCT-15; > 100 µM (inactive) with IGROV-1; 82.8 µM (inactive) in the experiment on KM-20L2; > 100 µM (inactive) in the experiment on M14. Besides, the GI50 with M19-MEL is > 100 µM (inactive); with MOLT-4 it was 75.3 µM (inactive); with OVCAR-5 it was > 100 µM (inactive); with SK-MEL-2, > 100 µM (inactive); in the experiment with SNB-19, > 100 µM (inactive); in the experiment with UACC-257, > 100 µM (inactive). The GI50 in the experiment with UO-31 was > 100 µM (inactive).

In the case of `Cc1c(C(=O)/C=C/c2ccc(N(C)C)cc2)c(=O)n(-c2ccccc2)n1C`, the GI50 is > 100 µM (inactive) in the experiment with 786-0; > 100 µM (inactive) with HCC 2998; > 100 µM in the experiment on HCT-15; > 100 µM (inactive) in the experiment on IGROV-1; > 100 µM (inactive) with KM-20L2; > 100 µM (inactive) with M19-MEL. Also, the GI50 with MOLT-4, in the experiment on NCI-H226, in the experiment with OVCAR-5, with SK-MEL-2, with SK-OV-3 and in the experiment on SNB-19 was > 100 µM (inactive) each time. Also, the GI50 with UACC-257 and in the experiment with UO-31 was > 100 µM (inactive) throughout.

As for `O=[N+]([O-])c1cccc(C2N3CCCCC3[C@@H]3c4[nH]c5ccccc5c4CCN23)c1` (stereo not given in full), the GI50 in the experiment on 786-0 was 16.9 µM (inactive); with HCT-15, 10.4 µM; with IGROV-1 it was 14.9 µM (inactive); with KM-20L2 it was 11 µM (inactive); with M14, 14.5 µM (inactive); with M19-MEL, 11.9 µM (inactive). For the same molecule, the GI50 in the experiment on MOLT-4 is 5.85 µM (inactive); in the experiment on OVCAR-5, 16.9 µM (inactive); in the experiment on SK-MEL-2 it was 10.1 µM (inactive); in the experiment on SK-OV-3, 17.8 µM (inactive); in the experiment on SNB-19, 19.7 µM (inactive); with UACC-257 it was 14 µM (inactive). Besides, the GI50 in the experiment on UO-31 is 11.9 µM (inactive).

In the case of `Nc1cc(C(=O)NC2C3CC4CC(C3)CC2C4)nc(S)n1` (stereo not given), the GI50 in the experiment with 786-0 was > 100 µM (inactive); in the experiment with HCC 2998, > 100 µM (inactive); in the experiment with HCT-15, > 100 µM; in the experiment with IGROV-1, > 100 µM (inactive); in the experiment with KM-20L2, > 100 µM (inactive); in the experiment on M14, > 100 µM (inactive). The GI50 with M19-MEL, with MOLT-4, in the experiment on NCI-H226, with SK-OV-3, with SNB-19 and in the experiment on SNB-75 was > 100 µM (inactive) throughout. For the same molecule, the GI50 in the experiment with UACC-257 and in the experiment on UO-31 was > 100 µM (inactive) in each case.
